Results taken from PubChem BioAssay (NCI).
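Following 48 hours of exposure in 96-well plates, responses at five concentrations were used to interpolate endpoints linearly. TGI marks complete inhibition of growth.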

Assays:
Test in all cases: inhibition of tumour cell growth, NCI panel, 48 h
NCI-H23 lung = tested on: NCI-H23 lung
SR leukemia = tested on: SR leukemia
OVCAR-5 ovarian = tested on: OVCAR-5 ovarian
OVCAR-8 ovarian = tested on: OVCAR-8 ovarian
DLD-1 colon = tested on: DLD-1 colon
SK-MEL-28 melanoma = tested on: SK-MEL-28 melanoma
XF 498 CNS = tested on: XF 498 CNS
HCT-116 colon = tested on: HCT-116 colon
SN12C renal = tested on: SN12C renal
UACC-62 melanoma = tested on: UACC-62 melanoma
SNB-75 CNS = tested on: SNB-75 CNS
U251 CNS = tested on: U251 CNS
COLO 205 colon = tested on: COLO 205 colon
NCI-H522 lung = tested on: NCI-H522 lung
A549 NSCLC = tested on: A549 NSCLC
NCI-H460 lung = tested on: NCI-H460 lung
IGROV1 ovarian = tested on: IGROV1 ovarian
M19-MEL melanoma = tested on: M19-MEL melanoma
K-562 leukemia = tested on: K-562 leukemia
UACC-257 melanoma = tested on: UACC-257 melanoma
HCC-2998 colon = tested on: HCC-2998 colon
SK-MEL-5 melanoma = tested on: SK-MEL-5 melanoma
SNB-19 CNS = tested on: SNB-19 CNS
HL-60(TB) leukemia = tested on: HL-60(TB) leukemia
786-0 renal = tested on: 786-0 renal
RPMI-8226 leukemia = tested on: RPMI-8226 leukemia
SK-OV-3 ovarian = tested on: SK-OV-3 ovarian
UO-31 renal = tested on: UO-31 renal
SF-295 CNS = tested on: SF-295 CNS
CCRF-CEM leukemia = tested on: CCRF-CEM leukemia
HOP-62 NSCLC = tested on: HOP-62 NSCLC
TK-10 renal = tested on: TK-10 renal
ACHN renal = tested on: ACHN renal
A498 renal = tested on: A498 renal
LXFL 529 NSCLC = tested on: LXFL 529 NSCLC
LOX IMVI melanoma = tested on: LOX IMVI melanoma
M14 melanoma = tested on: M14 melanoma
KM12 colon = tested on: KM12 colon
NCI-H226 lung = tested on: NCI-H226 lung
HOP-18 NSCLC = tested on: HOP-18 NSCLC
SW-620 colon = tested on: SW-620 colon
RXF 393 renal = tested on: RXF 393 renal
OVCAR-3 ovarian = tested on: OVCAR-3 ovarian
KM20L2 colon = tested on: KM20L2 colon
MALME-3M melanoma = tested on: MALME-3M melanoma
HT29 colon = tested on: HT29 colon
SF-539 CNS = tested on: SF-539 CNS
MOLT-4 leukemia = tested on: MOLT-4 leukemia
HCT-15 colon = tested on: HCT-15 colon
EKVX NSCLC = tested on: EKVX NSCLC

Measured: TGI

COC(=O)c1cc(=O)nc2cc3cccccc3n12
> 100 µM: all assays above
